Reference: ChEMBL document CHEMBL4177658, “Benzo[c][1,2,5]thiadiazole derivatives: A new class of potent Src homology-2 domain containing protein tyrosine phosphatase-2 (SHP2) inhibitors” (Bioorg Med Chem Lett, 2017)

What was measured:
[1] = molecular target: T1, Tyrosine-protein phosphatase non-receptor type 11 (Homo sapiens, UniProt Q06124); test: Inhibition of SHP2 (unknown origin) using 3-o-methylfluorescein phosphate as substrate by fluorescence assay
T1 sequence (Q06124 whole entry): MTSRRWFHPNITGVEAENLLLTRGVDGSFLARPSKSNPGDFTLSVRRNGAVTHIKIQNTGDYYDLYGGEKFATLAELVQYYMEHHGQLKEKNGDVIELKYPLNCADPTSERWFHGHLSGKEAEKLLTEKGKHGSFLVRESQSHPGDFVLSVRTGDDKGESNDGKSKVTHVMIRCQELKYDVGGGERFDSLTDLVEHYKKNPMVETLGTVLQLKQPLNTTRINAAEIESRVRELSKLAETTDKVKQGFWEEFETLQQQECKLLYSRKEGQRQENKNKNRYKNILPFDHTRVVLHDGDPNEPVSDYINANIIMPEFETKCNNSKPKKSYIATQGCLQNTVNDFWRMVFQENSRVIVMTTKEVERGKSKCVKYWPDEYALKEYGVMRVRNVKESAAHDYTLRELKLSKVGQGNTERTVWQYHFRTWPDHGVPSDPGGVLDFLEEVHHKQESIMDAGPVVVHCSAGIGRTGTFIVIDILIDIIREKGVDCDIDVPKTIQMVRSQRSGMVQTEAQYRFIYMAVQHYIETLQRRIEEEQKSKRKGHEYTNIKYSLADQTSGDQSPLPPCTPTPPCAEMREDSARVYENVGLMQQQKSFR

[2] = molecular target: T2, Tyrosine-protein phosphatase non-receptor type 1 (Homo sapiens, UniProt P18031); test: Inhibition of GST-tagged PTP1B (unknown origin) using pNPP as substrate measured for 3 mins by colorimetric assay
T2 sequence (P18031 whole entry): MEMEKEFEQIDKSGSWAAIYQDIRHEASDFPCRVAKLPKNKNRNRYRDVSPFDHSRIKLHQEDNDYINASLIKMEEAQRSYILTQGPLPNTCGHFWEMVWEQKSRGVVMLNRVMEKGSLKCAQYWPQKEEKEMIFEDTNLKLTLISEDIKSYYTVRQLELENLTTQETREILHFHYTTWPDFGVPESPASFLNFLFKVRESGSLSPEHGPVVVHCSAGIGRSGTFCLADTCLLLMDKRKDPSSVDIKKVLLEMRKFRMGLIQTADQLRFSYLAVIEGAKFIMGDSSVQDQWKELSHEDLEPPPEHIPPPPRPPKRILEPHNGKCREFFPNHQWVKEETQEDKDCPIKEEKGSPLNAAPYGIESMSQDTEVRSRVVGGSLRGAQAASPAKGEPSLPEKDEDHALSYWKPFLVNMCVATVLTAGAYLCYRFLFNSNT

[3] = molecular target: T3, Tyrosine-protein phosphatase non-receptor type 1 (Homo sapiens) (UniProt P18031); test: Inhibition of GST-tagged PTP1B (unknown origin) at 20 ug/ml using pNPP as substrate measured for 3 mins by colorimetric assay
T3 sequence (whole entry): T2 sequence (P18031 whole entry)

[4] = molecular target: T4, Tyrosine-protein phosphatase non-receptor type 11 (Homo sapiens) (UniProt Q06124); test: Inhibition of SHP2 (unknown origin) at 20 ug/ml using 3-o-methylfluorescein phosphate as substrate by fluorescence assay
T4 sequence (whole entry): T1 sequence (Q06124 whole entry)

[5] = molecular target: Tyrosine-protein phosphatase non-receptor type 6 (Homo sapiens, UniProt P29350); test: Inhibition of SHP1 (unknown origin) using 3-o-methylfluorescein phosphate as substrate by fluorescence assay
Tyrosine-protein phosphatase non-receptor type 6, sequence (P29350 whole entry): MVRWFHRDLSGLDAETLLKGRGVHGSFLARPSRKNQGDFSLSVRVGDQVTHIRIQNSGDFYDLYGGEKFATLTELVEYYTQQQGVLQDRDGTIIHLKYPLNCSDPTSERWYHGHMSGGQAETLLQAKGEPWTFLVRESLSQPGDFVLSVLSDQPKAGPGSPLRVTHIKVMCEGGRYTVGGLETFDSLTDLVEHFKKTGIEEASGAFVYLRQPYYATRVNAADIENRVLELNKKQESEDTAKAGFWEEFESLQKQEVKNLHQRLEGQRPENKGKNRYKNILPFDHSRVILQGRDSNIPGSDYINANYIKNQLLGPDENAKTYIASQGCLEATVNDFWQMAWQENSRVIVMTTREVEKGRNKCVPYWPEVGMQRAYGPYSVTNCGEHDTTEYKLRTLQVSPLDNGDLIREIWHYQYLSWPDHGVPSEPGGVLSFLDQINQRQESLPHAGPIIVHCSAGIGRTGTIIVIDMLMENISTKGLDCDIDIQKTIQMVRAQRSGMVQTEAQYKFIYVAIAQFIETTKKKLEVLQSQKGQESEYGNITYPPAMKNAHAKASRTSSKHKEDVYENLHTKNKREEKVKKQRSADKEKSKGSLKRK

[6] = molecular target: T5, Tyrosine-protein phosphatase non-receptor type 2 (Homo sapiens) (UniProt P17706); test: Inhibition of GST-tagged TCPTP (unknown origin) at 20 ug/ml using pNPP as substrate measured for 3 mins by colorimetric assay
T5 sequence (whole entry): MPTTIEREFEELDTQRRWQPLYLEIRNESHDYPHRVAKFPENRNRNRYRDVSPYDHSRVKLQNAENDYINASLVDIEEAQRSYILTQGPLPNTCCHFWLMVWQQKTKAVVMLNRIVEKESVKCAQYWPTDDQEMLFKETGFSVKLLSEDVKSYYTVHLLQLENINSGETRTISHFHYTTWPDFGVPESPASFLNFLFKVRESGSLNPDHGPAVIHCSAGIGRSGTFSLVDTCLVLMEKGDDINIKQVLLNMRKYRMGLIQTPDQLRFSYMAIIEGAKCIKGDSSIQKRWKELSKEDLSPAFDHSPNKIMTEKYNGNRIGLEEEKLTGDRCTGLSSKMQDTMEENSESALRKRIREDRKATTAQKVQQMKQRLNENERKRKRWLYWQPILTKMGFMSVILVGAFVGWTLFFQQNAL

Homo sapiens [7] = species on record: Homo sapiens; test: Selectivity index, ratio of IC50 for GST-tagged PTP1B (unknown origin) to iC50 for SHP2 (unknown origin)
Homo sapiens [8] = species on record: Homo sapiens; test: Selectivity index, ratio of IC50 for SHP1 (unknown origin) to IC50 for SHP2 (unknown origin)

SMILES | IC50 [1] [µM] | inhibition [3] [%] | inhibition [4] [%] | also measured
c1csc(CNc2ccc3nsnc3c2)c1 | 23.9 | – | – | IC50 [2]: 48.3 µM
Nc1cc2nsnc2cc1C#CC1CC1 | 15.5 | < 50 | – | –
O=[N+]([O-])c1cc2nsnc2cc1-c1ccccc1 | – | < 50 | < 50 | –
Nc1cc2nsnc2cc1C#Cc1ccccc1 | 14 | – | – | IC50 [2]: 33.6 µM
c1ccc(CNc2ccc3nsnc3c2)nc1 | 30.6 | < 50 | – | –
O=[N+]([O-])c1cc2nsnc2cc1C#Cc1ccccc1 | – | < 50 | < 50 | –
c1ccc(CNc2ccc3nsnc3c2)cc1 | 26.5 | – | – | IC50 [2]: 42.1 µM
Nc1cc2nsnc2cc1Br | 42.4 | < 50 | – | –
CCCNc1ccc2nsnc2c1 | – | < 50 | < 50 | –
C#Cc1cc2nsnc2cc1[N+](=O)[O-] | 30 | < 50 | – | –
CC(C)(C)C#Cc1cc2nsnc2cc1[N+](=O)[O-] | – | < 50 | < 50 | –
Nc1cc2nsnc2cc1-c1ccccc1 | – | < 50 | < 50 | –
C[Si](C)(C)C#Cc1cc2nsnc2cc1N | – | < 50 | < 50 | –
C[Si](C)(C)C#Cc1cc2nsnc2cc1[N+](=O)[O-] | – | < 50 | < 50 | –
c1cc2nsnc2cc1NCC1CCCCC1 | – | < 50 | < 50 | –
O=[N+]([O-])c1cc2nsnc2cc1C#CCCCCCl | – | < 50 | < 50 | –
CC(C)(C)C#Cc1cc2nsnc2cc1N | 25.8 | < 50 | – | –
O=[N+]([O-])c1cc2nsnc2cc1C#CC1CC1 | – | < 50 | < 50 | –
Nc1ccc2nsnc2c1 | 39.1 | < 50 | – | –
Nc1cc2nsnc2cc1C#CCCCCCl | 5.81 | – | – | IC50 [2]: 38.2 µM
c1coc(CNc2ccc3nsnc3c2)c1 | – | < 50 | < 50 | –
C#Cc1cc2nsnc2cc1N | 2.11 | – | – | IC50 [5]: 4.28 µM; inhibition [6]: < 50%; Ratio IC50 (Homo sapiens [7]): 25; IC50 [2]: 50.2 µM; Ratio IC50 (Homo sapiens [8]): 2.02
